# Tests used:
# rats [1] = test: Serum ALT levels in rats (liver function); type: in vivo; conditions: oral, various dosages for 5 days (FIG. 3)
# Experimental: (§1) Mammalian species (i.e., rats) were used. Rats were fed a standard diet (3.5% fat, <0.02% cholesterol). Weaned rats were grouped into treated and controls. Rats were chosen as the testing animal so that 0.5 ml of blood samples could be taken for testing. Rats were anesthetized first in an induction chamber with isoflurane and oxygen (100%). Once anesthetized rats were positioned dorsally for the blood draw from the jugular or ventral tail vein. An anesthetic nose-cone was placed on the nose of the rat allowing isoflurane and oxygen (100%) to be delivered through a Bain circuit. After obtaining blood, the rats were allowed to recover in a shoebox cage with a heat lamp positioned over the top of the cage. Once the rats were awake and moving freely around the recovery cage, they are placed back in their normal cages. Total time for procedure is ˜15-20 minutes per rat.
# (§2) N-(4-{[4-(3,4-dichlorophenyl)-1,3-thiazol-2-yl]amino}phenyl)acetamide hydrobromide was mixed with DMSO (solvent) in increasing dosages, which were feed to laboratory rats. Rats received the preparations via oral drops. Daily observations were recorded concerning (i) weight changes and (ii) mortality. […]
# The vertebrate SCP-2 is involved in cholesterol metabolism, therefore, cholesterol homeostasis is advantageously monitored when SCP-2 inhibitors are tested in mammalian species. […]
# rats [2] = test: Total serum cholesterol levels in rats; type: in vivo, rat; conditions: oral, varying concentrations for 5 days, all treated animals (FIG. 2)
# Experimental: as §1
# as §2, with “mortality. Blood samples were taken every three weeks for testing cholesterol levels and for testing Alanine Aminotransferase (ALT) for liver function.” for “mortality.”
# [3] = Growth rate of young rats upon oral administration; type: in vivo; conditions: young rats starting at 20 days of age, 5 days/week at various dosages (FIG. 1)
# Experimental: FIG. 1 is a graph showing growth rates of young rats (starting at 20 days of age) upon oral administration of N-(4-{[4-(3,4-dichlorophenyl)-1,3-thiazol-2-yl]amino}phenyl)acetamide hydrobromide, whereby the effect on growth rate was insignificant, whereby the drug was administered 5 days/week at various dosages, whereby weight was measured every day during the treatment regimen (Monday-Friday), whereby the data is shown in three groups to compensate for variations in growth rate as the animals aged, whereby the listed days represent the number of days after the initial first administration, and whereby the bars represent the average growth rate±Standard deviation.
# Mammalian species (i.e., rats) were used. Rats were fed a standard diet (3.5% fat, <0.02% cholesterol). Weaned rats were grouped into treated and controls. Rats were chosen as the testing animal so that 0.5 ml of blood samples could be taken for testing. Rats were anesthetized first in an induction chamber with isoflurane and oxygen (100%). Once anesthetized rats were positioned dorsally for the blood draw from the jugular or ventral tail vein. […]
# N-(4-{[4-(3,4-dichlorophenyl)-1,3-thiazol-2-yl]amino}phenyl)acetamide hydrobromide was mixed with DMSO (solvent) in increasing dosages, which were feed to laboratory rats. […] Daily observations were recorded concerning (i) weight changes and (ii) mortality. […]
smiles,measurement,setting,value
"Br.CC(=O)Nc1ccc(Nc2nc(-c3ccc(Cl)c(Cl)c3)cs2)cc1 [N-(4-{[4-(3,4-dichlorophenyl)-1,3-thiazol-2-yl]amino}phenyl)acetamide hydrobromide]","serum ALT levels, control (0 mg/kg) vs treated animals",rats [1],no significant difference
same,total serum cholesterol levels,rats [2],significant decrease
same,effect on growth rate,[3],insignificant

# — patent US20080194658A1, “Sterol Carrier Protein-2 Inhibitors for Lowering Cholesterol and Triglyceride Levels in Mammals” (priority 2006, published 2008)
